Here are results for two compounds from article PMC4710522, “A Novel Triazolopyridine-Based Spleen Tyrosine Kinase Inhibitor That Arrests Joint Inflammation” (PLoS ONE, 2016).

By inhibition is commonly meant the share of the control response that was lost under treatment. A low value points to a weak effect. The term AUC(0-inf) denotes total exposure, with the tail of the curve extrapolated. Lower therefore signals low exposure. For orientation: clearance means a measure of how efficiently the substance is removed, as volume per time. For orientation: MRT means the average time that molecules of a dose stay in the body. The Cmax is the maximum level reached in the sampled fluid or tissue.

One data set addresses T1, EphA3_h (Homo sapiens, UniProt P29320).
T1 construct: purchased Life Technologies (Invitrogen) SelectScreen, Z'-LYTE / Adapta
The data set can be described thus: SelectScreen kinase assay. Format: biochemical. The note with it: KM ATP, read-out: % control. The procedure:
(§1) Syk kinase mode of inhibition studies, including parameters described in Fig 1, were conducted on the LC3000 platform by Caliper Life Sciences (Hopkinton, MA) according to standard protocols developed by the supplier. […] Non-kinase enzyme assays and GPCR, ion channel, and transporter binding assays were run by CEREP (France). Non-GLP manual patch clamp hERG assays were run by ChanTest (Cleveland, Ohio). Vivid® Assay kits (Life Technologies) were used to measure the cytochrome P450 inhibition of the compound against CYP3A, CYP2C9, CYP2C19, CYP2D6, and CYP1A2, as described.
(§2) Kinase activity was measured using either the Z’-Lyte® or the Adapta® protocols as part of the SelectScreen™ profiling service offered at Life Technologies (Grand Island, NY). For the single point measurements (Part A), CC-509 was kept constant at 3 µM while ATP concentrations [ATP] used were at the KM for ATP (KM ATP) for that specific enyzme, at 10 or 100 µM ATP (10 ATP or 100 ATP, respectively), as indicated. Values expressed as percent control (% control) relative to DMSO-only wells (uninhibited, 100%).

A further data set deals with T2, PI3K-C2 alpha_h (Homo sapiens, UniProt O00443).
T2 construct: purchased Life Technologies (Invitrogen) SelectScreen, Z'-LYTE / Adapta
The data set can be described thus: SelectScreen kinase assay. The note with it: KM ATP, read-out: % control. Format: biochemical. The procedure: as §1, §2

A further data set concerns the target T3, PI3K-C2 beta_h (Homo sapiens, UniProt O00750).
T3 construct: purchased Life Technologies (Invitrogen) SelectScreen, Z'-LYTE / Adapta
The data set can be described thus: SelectScreen kinase assay. The note with it: 10 µM ATP, read-out: % control. The format is biochemical. The procedure:
as §1, §2

Another data set addresses T4, PI3_Kinase-alpha_h (Homo sapiens, UniProt P42336).
T4 construct: purchased Life Technologies (Invitrogen) SelectScreen, Z'-LYTE / Adapta
The experiment in a line: SelectScreen kinase assay. Format: biochemical. The note with it: KM ATP, read-out: % control. The method, then:
as §1, §2

The target of a further data set is T5, PI3_Kinase-delta_h (Homo sapiens, UniProt O00329).
T5 construct: purchased Life Technologies (Invitrogen) SelectScreen, Z'-LYTE / Adapta
The data set can be described thus: SelectScreen kinase assay. The format is biochemical. The note with it: KM ATP, read-out: % control. The procedure: as §1, §2

Another data set has as its target T6, PI3_Kinase-gamma_h (Homo sapiens, UniProt P48736).
T6 construct: purchased Life Technologies (Invitrogen) SelectScreen, Z'-LYTE / Adapta
The data set can be described thus: SelectScreen kinase assay. The format is biochemical. The note with it: KM ATP, read-out: % control. The procedure:
as §1, §2

The target of another data set is T7, PI4K-alpha_h (Homo sapiens, UniProt P42356).
T7 construct: purchased Life Technologies (Invitrogen) SelectScreen, Z'-LYTE / Adapta
The data set can be described thus: SelectScreen kinase assay. The format is biochemical. The note with it: 10 µM ATP, read-out: % control. The method, then:
as §1, §2

Another data set concerns the target T8, PI4K-beta_h (Homo sapiens, UniProt Q9UBF8).
T8 construct: purchased Life Technologies (Invitrogen) SelectScreen, Z'-LYTE / Adapta
The data set can be described thus: SelectScreen kinase assay. The format is biochemical. The note with it: KM ATP, read-out: % control. The method, then:
as §1, §2

Another data set has as its target T9, PIK3C3_h (Homo sapiens, UniProt Q8NEB9).
T9 construct: purchased Life Technologies (Invitrogen) SelectScreen, Z'-LYTE / Adapta
The data set can be described thus: SelectScreen kinase assay. The note with it: KM ATP, read-out: % control. The format is biochemical. The procedure:
as §1, §2

For the next data set, the target named is T10, SPHK1_h (Homo sapiens, UniProt Q9NYA1).
T10 construct: purchased Life Technologies (Invitrogen) SelectScreen, Z'-LYTE / Adapta
The data set can be described thus: SelectScreen kinase assay. Format: biochemical. The note with it: KM ATP, read-out: % control. The method, then: as §1, §2

The target in a further data set is T11, SPHK2_h (Homo sapiens, UniProt Q9NRA0).
T11 construct: purchased Life Technologies (Invitrogen) SelectScreen, Z'-LYTE / Adapta
The experiment in a line: SelectScreen kinase assay. Format: biochemical. The note with it: 10 µM ATP, read-out: % control. The method, then:
as §1, §2

The target in the next data set is T12, Adenosine A1 (Homo sapiens, UniProt P30542).
T12 construct: CEREP (contract assay)
The data set can be described thus: receptor, ion channel, transporter binding panel (CEREP). The method, then: as §1

Another data set deals with T13, Adenosine A2a (Homo sapiens, UniProt P29274).
T13 construct: CEREP (contract assay)
Described as above. The procedure: as §1

The target in the next data set is T14, Adenosine A3 (Homo sapiens, UniProt P0DMS8).
T14 construct: CEREP (contract assay)
Described as above. The procedure: as §1

A further data set is described as follows: rat pharmacokinetics. The note with it: Sprague-Dawley, plasma. Format: in vivo. The method, then: Male and Female Sprague-dawley rats with jugular vein cannulation were obtained from Charles River Laboratories. All rats were maintained under standard conditions with access to food and water ad libitum. For intravenous (i.v.) dosing, CC-509 was dissolved in DMA/PEG400 (15/85, V/V). A dose of 2 mg/kg was administered to three male rats via jugular vein cannula with a dosing volume of 2 mL/kg followed by flushing 0.5 mL saline through the cannula. Blood were collected at 0.083, 0.25, 0.5, 1, 2, 4, 6, 8 and 24hr post dose. Plasma samples were separated by centrifugation of blood and stored at -20°C until analysis. For oral administration, four female rats (220–250g) were fasted for 12hr but allowed to access water prior to the dosing. CC-509 was formulated in 20% Captisol as a solution and was administered to the rats at 10 mg/kg by oral gavage with a dosing volume of 5mL/kg. Food was returned to the rats 2hr post dosing. Blood samples were collected at 0.5, 1, 2, 4, 6, 8 and 24hr post dose. Plasma samples were separated by centrifugation of blood and stored at -20°C until analysis. Plasma concentrations of CC-509 were quantified by a LC/MS/MS method. A total of 50 microliters (μL) of each plasma sample was extracted with three volumes of mixed solvent (methanol:acetonitrile (1:1). The extracted samples were filtered through a filtration plate (0.45μm, Varian, Inc.) and the filtrates were injected onto a LC-MS system. The LC-MS system consisted of a ThermoScientific (Waltham, MA) TSQ Quantum Ultra™ Mass Spectrometer coupled with a Thermo Accela™ ultra-high pressure liquid chromatogram (UPLC) system. Separation was achieved on a Thermo Hypersil Gold™ column (50 x 2.1 mm, 1.9 μm) by running a linear gradient of mobile phase at a flow rate of 0.5 mL/min. Mobile phase A and B consisted of 0.1% formic acid in water and 0.1% formic acid in methanol, respectively. Quantitation was performed using selected reaction monitoring (SRM) at the transition m/z 448 to m/z 364 for CC-509. PK parameters in plasma were estimated by WinNonLin software (Pharsight, Princeton, NJ) using non-compartmental analysis. For i.v. dosing, plasma clearance (CLp), volume distribution at steady-state (Vss) and mean residence time (MRT) were estimated. For oral administration, the maximum plasma concentration (Cmax), the time when the maximum plasma concentration is reached (Tmax) and area under the curve from 0 to infinity (AUC0-inf) were calculated.

In the next data set the target is T15, DNAPK_h (Homo sapiens, UniProt P78527).
T15 construct: purchased Life Technologies (Invitrogen) SelectScreen, Z'-LYTE / Adapta
The experiment in a line: SelectScreen kinase assay. Format: biochemical. The note with it: 3 µM, KM ATP. The procedure: as §1
Kinase activity was measured using either the Z’-Lyte® or the Adapta® protocols as part of the SelectScreen™ profiling service offered at Life Technologies (Grand Island, NY). […] Values expressed as percent control (% control) relative to DMSO-only wells (uninhibited, 100%).

The conditions of data set [1]: male rats; cited from earlier work.

T13 sequence (P29274 whole entry): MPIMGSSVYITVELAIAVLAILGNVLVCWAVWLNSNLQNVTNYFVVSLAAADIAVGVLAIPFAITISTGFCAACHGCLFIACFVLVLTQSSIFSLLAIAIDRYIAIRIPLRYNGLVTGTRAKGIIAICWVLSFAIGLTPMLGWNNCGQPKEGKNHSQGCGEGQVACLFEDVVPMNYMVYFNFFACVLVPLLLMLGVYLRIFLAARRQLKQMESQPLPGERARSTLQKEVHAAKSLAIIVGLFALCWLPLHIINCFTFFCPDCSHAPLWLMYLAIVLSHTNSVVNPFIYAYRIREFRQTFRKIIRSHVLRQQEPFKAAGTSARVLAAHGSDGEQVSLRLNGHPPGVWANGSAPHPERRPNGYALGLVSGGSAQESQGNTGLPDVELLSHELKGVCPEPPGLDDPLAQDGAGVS
T9 sequence (Q8NEB9 whole entry): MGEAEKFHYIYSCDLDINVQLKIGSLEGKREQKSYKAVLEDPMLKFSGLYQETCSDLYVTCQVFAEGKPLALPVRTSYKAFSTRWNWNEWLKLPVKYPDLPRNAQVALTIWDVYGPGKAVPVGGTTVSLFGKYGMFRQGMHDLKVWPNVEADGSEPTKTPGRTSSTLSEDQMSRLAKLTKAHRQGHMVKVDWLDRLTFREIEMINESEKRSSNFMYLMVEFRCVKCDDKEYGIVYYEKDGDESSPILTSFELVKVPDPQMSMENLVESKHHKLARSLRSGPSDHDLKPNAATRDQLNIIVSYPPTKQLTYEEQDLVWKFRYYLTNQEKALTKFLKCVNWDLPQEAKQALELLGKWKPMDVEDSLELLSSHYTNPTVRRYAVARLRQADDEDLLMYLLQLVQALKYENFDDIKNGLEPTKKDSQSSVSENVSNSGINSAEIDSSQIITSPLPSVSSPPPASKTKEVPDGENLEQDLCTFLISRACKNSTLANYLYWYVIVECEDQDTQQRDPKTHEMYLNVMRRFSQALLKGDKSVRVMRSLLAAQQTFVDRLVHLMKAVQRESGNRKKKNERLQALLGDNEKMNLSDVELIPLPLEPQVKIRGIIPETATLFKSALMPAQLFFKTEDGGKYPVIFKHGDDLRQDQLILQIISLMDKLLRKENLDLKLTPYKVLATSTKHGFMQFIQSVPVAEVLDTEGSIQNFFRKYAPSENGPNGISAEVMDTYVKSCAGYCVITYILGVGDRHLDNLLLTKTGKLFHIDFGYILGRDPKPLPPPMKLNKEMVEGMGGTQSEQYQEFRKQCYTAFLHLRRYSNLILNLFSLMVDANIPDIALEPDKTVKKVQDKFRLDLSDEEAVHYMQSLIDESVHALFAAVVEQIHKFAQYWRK
T4 sequence (P42336 whole entry): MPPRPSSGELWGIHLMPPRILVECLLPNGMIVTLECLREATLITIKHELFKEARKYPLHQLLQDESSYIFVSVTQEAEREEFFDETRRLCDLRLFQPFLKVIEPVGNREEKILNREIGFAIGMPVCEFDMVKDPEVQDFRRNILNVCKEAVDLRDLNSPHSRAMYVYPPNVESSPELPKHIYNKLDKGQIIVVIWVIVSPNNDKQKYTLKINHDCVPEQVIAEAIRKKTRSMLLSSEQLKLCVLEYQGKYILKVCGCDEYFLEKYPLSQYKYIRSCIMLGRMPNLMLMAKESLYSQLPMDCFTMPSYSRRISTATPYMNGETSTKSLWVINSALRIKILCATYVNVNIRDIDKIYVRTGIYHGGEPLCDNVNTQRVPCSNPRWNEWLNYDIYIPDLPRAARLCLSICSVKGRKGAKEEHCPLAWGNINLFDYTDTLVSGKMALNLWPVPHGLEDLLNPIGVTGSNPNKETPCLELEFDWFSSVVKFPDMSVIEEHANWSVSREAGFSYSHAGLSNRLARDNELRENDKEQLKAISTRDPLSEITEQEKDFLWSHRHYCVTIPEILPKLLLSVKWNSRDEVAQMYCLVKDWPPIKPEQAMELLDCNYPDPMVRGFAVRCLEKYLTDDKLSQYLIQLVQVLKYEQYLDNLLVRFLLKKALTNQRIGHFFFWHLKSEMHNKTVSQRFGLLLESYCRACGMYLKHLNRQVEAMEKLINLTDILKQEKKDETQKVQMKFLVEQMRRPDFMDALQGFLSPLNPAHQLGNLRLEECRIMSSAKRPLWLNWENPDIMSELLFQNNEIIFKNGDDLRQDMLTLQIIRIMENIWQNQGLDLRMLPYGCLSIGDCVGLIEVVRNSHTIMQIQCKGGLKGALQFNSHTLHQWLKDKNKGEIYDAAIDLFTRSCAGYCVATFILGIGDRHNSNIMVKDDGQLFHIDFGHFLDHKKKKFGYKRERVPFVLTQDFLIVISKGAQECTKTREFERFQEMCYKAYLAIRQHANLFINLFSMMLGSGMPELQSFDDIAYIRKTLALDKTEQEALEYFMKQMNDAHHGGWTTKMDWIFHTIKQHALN
T4 sequence (P27986 whole entry partner): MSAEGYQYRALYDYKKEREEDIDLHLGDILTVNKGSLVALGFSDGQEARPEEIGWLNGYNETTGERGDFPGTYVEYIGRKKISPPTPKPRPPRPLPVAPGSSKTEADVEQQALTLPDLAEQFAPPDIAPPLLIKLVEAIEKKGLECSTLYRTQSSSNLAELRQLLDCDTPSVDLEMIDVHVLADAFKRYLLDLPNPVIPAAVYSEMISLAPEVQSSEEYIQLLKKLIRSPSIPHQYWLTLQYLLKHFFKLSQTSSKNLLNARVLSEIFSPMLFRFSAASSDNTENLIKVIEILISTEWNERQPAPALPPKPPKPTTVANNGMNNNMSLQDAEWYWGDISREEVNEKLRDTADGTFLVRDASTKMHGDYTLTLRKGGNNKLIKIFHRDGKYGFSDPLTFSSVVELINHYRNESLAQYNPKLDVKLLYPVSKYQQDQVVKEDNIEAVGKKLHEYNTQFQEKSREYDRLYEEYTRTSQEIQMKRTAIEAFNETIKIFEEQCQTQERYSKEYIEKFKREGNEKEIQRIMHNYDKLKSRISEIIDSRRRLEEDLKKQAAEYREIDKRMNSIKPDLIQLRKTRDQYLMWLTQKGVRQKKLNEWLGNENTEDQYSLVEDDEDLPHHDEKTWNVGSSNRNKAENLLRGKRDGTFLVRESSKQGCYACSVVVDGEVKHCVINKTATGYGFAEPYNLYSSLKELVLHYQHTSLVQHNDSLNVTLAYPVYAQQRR
T12 sequence (P30542 whole entry): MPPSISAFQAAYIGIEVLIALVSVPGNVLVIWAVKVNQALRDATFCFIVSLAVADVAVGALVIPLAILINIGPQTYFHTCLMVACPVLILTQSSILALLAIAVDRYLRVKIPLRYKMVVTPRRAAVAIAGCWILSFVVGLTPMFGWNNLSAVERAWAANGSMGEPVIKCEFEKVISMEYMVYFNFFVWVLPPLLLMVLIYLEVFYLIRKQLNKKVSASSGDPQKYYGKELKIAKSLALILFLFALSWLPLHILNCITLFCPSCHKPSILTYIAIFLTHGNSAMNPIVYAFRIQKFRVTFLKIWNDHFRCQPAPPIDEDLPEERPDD
T8 sequence (Q9UBF8 whole entry): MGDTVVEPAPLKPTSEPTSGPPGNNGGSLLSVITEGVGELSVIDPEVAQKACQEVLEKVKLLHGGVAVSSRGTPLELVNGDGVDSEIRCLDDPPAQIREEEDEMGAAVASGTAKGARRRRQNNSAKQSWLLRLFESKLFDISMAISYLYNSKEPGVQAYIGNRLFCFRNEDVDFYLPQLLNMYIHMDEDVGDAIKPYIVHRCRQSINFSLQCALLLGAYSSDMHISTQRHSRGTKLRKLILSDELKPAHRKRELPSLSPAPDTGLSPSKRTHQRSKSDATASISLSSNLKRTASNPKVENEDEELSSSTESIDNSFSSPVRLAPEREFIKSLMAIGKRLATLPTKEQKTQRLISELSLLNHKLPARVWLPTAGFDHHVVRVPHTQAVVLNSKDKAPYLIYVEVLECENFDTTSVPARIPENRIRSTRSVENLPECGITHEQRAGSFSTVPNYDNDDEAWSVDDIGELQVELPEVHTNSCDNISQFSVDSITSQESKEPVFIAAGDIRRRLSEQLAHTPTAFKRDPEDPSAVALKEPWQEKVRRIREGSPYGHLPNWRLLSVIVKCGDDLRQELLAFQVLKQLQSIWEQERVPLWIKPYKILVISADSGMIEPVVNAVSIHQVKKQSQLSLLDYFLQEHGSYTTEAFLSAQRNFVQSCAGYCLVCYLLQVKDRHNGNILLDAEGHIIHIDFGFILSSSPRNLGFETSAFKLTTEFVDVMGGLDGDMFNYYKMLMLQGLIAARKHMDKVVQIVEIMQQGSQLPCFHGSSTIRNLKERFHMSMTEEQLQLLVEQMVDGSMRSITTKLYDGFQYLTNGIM
T10 sequence (Q9NYA1 whole entry): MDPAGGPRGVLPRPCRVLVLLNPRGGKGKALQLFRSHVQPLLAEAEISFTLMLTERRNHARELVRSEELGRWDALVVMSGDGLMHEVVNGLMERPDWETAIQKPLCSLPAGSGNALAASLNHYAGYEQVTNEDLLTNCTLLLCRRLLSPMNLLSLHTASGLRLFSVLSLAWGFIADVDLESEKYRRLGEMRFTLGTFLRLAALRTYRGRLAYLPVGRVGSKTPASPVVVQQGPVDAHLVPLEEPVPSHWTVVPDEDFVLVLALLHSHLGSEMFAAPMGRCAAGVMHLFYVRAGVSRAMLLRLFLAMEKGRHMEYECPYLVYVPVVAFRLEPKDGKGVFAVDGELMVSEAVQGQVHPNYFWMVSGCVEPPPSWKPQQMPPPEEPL
T14 sequence (P0DMS8 whole entry): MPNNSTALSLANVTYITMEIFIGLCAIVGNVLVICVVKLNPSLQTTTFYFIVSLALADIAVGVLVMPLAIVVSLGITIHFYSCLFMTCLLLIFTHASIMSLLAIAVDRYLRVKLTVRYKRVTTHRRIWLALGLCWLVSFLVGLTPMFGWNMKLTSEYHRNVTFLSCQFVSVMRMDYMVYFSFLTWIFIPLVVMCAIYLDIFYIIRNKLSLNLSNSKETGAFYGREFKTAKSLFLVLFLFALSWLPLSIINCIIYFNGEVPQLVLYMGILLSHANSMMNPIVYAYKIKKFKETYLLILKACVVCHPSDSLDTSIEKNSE

`c1cc(CC2CCOCC2)n2nc(Nc3ccc4c(NC5CCOCC5)n[nH]c4c3)nc2c1` [CC-509, [3-(2H-3,4,5,6-tetrahydropyran-4-ylamino)(1H-indazol-6-yl)][5-(2H-3,4,5,6-tetrahydropyran-4-ylmethyl)(2H-1,2,4-triazolo[1,5-a]pyridin-2-yl)]amine]: the remaining activity at 3 µM was 98% at EphA3_h; 95% at PI3K-C2 alpha_h; 98% on PI3K-C2 beta_h; 81% on PI3_Kinase-alpha_h; 58% at PI3_Kinase-delta_h; 61% at PI3_Kinase-gamma_h. For the same compound, the remaining activity at 3 µM at PI4K-alpha_h stood at 120%; at PI4K-beta_h it was 77%; at PIK3C3_h it was 79%; on SPHK1_h, 96%; on SPHK2_h, 105%. The inhibition at 10 µM on Adenosine A1 was 89%; at Adenosine A2a, 96%; on Adenosine A3 it was 84%. For the same compound, the AUC(0-inf) came to 4.02 ± 0.7 µM·h in the data set “rat pharmacokinetics” (iv, i.v. 2 mg/kg, male rats) and 12 ± 1 µM·h in the data set “rat pharmacokinetics” (oral 10 mg/kg, female rats). Moreover, the clearance in “rat pharmacokinetics” (iv, i.v. 2 mg/kg, male rats, read-out: clearance (CL)) worked out at 18.9 ± 3.5 mL/min/kg. The MRT in “rat pharmacokinetics” (iv, i.v. 2 mg/kg, male rats, read-out: mean residence time (MRT)) stood at 2.3 ± 1.5 h. Besides, the Vd in “rat pharmacokinetics” (iv, i.v. 2 mg/kg, male rats, read-out: volume of distribution (Vss)) was 2.8 ± 2.36 L/kg. Also, the Cmax in the data set “rat pharmacokinetics” (oral 10 mg/kg, female rats) was 4.4 ± 0.2 µM. Further, in “rat pharmacokinetics” (oral 10 mg/kg, female rats, read-out: time of maximal plasma concentration (converted)), the Tmax was 0.5 h.
`COc1cc(Nc2ncc(F)c(Nc3ccc4c(n3)NC(=O)C(C)(C)O4)n2)cc(OC)c1OC` [R406, reference compound]: the “% control” value on DNAPK_h came to 87%. For the same compound, the exposure producing myelosuppression in data set [1] is 120 µM·h.
